Read-outs that look alike come from different tables or passages of the source.

The subject of the assay is Mycosphaerella graminicola; Anamorph: Septoria tritici; Bayer Code SEPTTR. Nature of the assay: Leaf blotch of wheat, foliar fungicide treatment, one day protectant (1DP) or three day curative (3DC). The format is in vivo, Septoria tritici on wheat plants (variety Yuma). To be noted: Zymoseptoria tritici, rating of percent disease control.
Setting [1] is: 24 h, one day protectant (1DP), read-out: SETTTR 1DP 25 ppm.
The mark [2] stands for this setting: 24 h, one day protectant (1DP), read-out: SEPTTR 1DP 100 ppm.
The mark [3] stands for this setting: 72 h, three day curative (3DC), read-out: SEPTTR 3DC 25 ppm.
[4] abbreviates: 72 h, three day curative (3DC), read-out: SEPTTR 3DC 100 ppm.
Setting [5] is: 24 h, one day protectant, read-out: SETTTR 1DP 25 ppm.
The mark [6] stands for this setting: 24 h, one day protectant, read-out: SEPTTR 1DP 100 ppm.
[7] abbreviates: 72 h, three day curative, read-out: SEPTTR 3DC 25 ppm.
Setting [8] is: 72 h, three day curative, read-out: SEPTTR 3DC 100 ppm.

As to `Nc1nc(COc2ccc(COc3ncc(F)c(N)n3)cc2)ncc1F` [Compound 546], the pest or weed control at 25 ppm is, setting by setting: under setting [1], 51 to 75%; under setting [3], 51 to 75%. Also, the pest or weed control at 100 ppm by setting is: under setting [2], 51 to 75%; under setting [4], 0 to 25%.

Turning to `Nc1nc(OCc2ccc(F)c(Cl)c2)ncc1F` [Compound 547], the pest or weed control at 25 ppm is, setting by setting: under setting [1], 76 to 100%; under setting [3], 76 to 100%. For the same compound, the pest or weed control at 100 ppm was 76 to 100% under setting [2] and 76 to 100% under setting [4].

`CC(C)NC(=O)Nc1nc(OCc2cccc(C#N)c2)ncc1F` [Compound 548]: the pest or weed control at 25 ppm is 0 to 25% under setting [1] and 0 to 25% under setting [3]. The pest or weed control at 100 ppm lay within 0 to 25% under setting [2] and 0 to 25% under setting [4].

Take `Nc1nc(Oc2ccc(Cl)nc2)ncc1F` [Compound 549]: the pest or weed control at 25 ppm runs as follows: under setting [1], 26 to 50%; under setting [3], 0 to 25%. The pest or weed control at 100 ppm under setting [2] lay in the range of 0 to 25% and the pest or weed control at 100 ppm under setting [4] lay within 0 to 25%.

With `COc1cccc(COc2ncc(F)c(NC(C)=O)n2)c1` [Compound 550], the pest or weed control at 25 ppm under setting [5] is 76 to 100% and the pest or weed control at 25 ppm under setting [7] lay within 76 to 100%. Besides, the pest or weed control at 100 ppm under setting [6] lay in the range of 76 to 100% and the pest or weed control at 100 ppm under setting [8] was in the range of 76 to 100%.

With `Nc1nc(Oc2ccccc2Cl)ncc1F` [Compound 551], the pest or weed control at 25 ppm under setting [5] is 0 to 25%. Further, under setting [6], the pest or weed control at 100 ppm lay within 26 to 50%.

`CCCNC(=S)Nc1nc(OCc2ccc(OC)c(F)c2)ncc1F` [Compound 552]: the pest or weed control at 25 ppm is, setting by setting: under setting [5], 0 to 25%; under setting [7], 0 to 25%. For the same compound, the pest or weed control at 100 ppm under setting [6] lay in the range of 76 to 100% and the pest or weed control at 100 ppm under setting [8] lay in the range of 76 to 100%.

As for `CCOC(=O)C(=O)Nc1nc(OCc2ccc(C)cc2)ncc1F` [Compound 553], the pest or weed control at 25 ppm runs as follows: under setting [5], 76 to 100%; under setting [7], 76 to 100%. The pest or weed control at 100 ppm is 76 to 100% under setting [6] and 76 to 100% under setting [8].

On to `N#Cc1cccc(COc2ncc(F)c(NC(=O)Nc3ccccc3)n2)c1` [Compound 555], for which the pest or weed control at 25 ppm was in the range of 0 to 25% under setting [5] and 0 to 25% under setting [7]. Moreover, the pest or weed control at 100 ppm is 0 to 25% under setting [6] and 0 to 25% under setting [8].

For the compound `COc1cccc(COc2ncc(F)c(N/N=C\c3ncc[nH]3)n2)c1` [Compound 557], the pest or weed control at 25 ppm was 26 to 50% under setting [5] and 0 to 25% under setting [7]. In addition, the pest or weed control at 100 ppm was in the range of 0 to 25% under setting [6] and 0 to 25% under setting [8].

For the compound `O=[N+]([O-])c1ccccc1SNc1nc(OCc2ccccc2)ncc1F` [Compound 558], the pest or weed control at 25 ppm by setting is: under setting [5], 76 to 100%; under setting [7], 26 to 50%. The pest or weed control at 100 ppm under setting [6] was in the range of 76 to 100% and the pest or weed control at 100 ppm under setting [8] was in the range of 26 to 50%.

Take `CC#CCOc1ncc(F)c(NCO)n1` [Compound 559]: the pest or weed control at 25 ppm under setting [5] lay in the range of 51 to 75% and the pest or weed control at 25 ppm under setting [7] lay within 76 to 100%. Besides, the pest or weed control at 100 ppm is, setting by setting: under setting [6], 76 to 100%; under setting [8], 76 to 100%.

As for `CC[Si](CC)(CC)Nc1nc(OCc2ccc(C)cc2)ncc1F` [Compound 561], the pest or weed control at 25 ppm was in the range of 76 to 100% under setting [5] and 76 to 100% under setting [7]. The pest or weed control at 100 ppm reads like this: under setting [6], 76 to 100%; under setting [8], 76 to 100%.

As to `COc1cccc(COc2ncc(F)c(NN3CCCCC3)n2)c1` [Compound 562], the pest or weed control at 25 ppm lay in the range of 0 to 25% under setting [5] and 0 to 25% under setting [7]. For the same compound, the pest or weed control at 100 ppm under setting [6] lay in the range of 0 to 25% and the pest or weed control at 100 ppm under setting [8] was in the range of 26 to 50%.

Consider `Cc1cc(C)cc(COc2ncc(F)c(N)n2)c1` [Compound 564], for which the pest or weed control at 25 ppm under setting [5] was 51 to 75% and the pest or weed control at 25 ppm under setting [7] fell in the range of 26 to 50%. For the same compound, the pest or weed control at 100 ppm by setting is: under setting [6], 76 to 100%; under setting [8], 76 to 100%.

In the case of `CCCNC(=O)Nc1nc(OCc2cccc(F)c2)ncc1F` [Compound 566], the pest or weed control at 25 ppm runs as follows: under setting [5], 0 to 25%; under setting [7], 0 to 25%. Moreover, the pest or weed control at 100 ppm is, setting by setting: under setting [6], 0 to 25%; under setting [8], 0 to 25%.

On to `CCCNC(=S)Nc1nc(OCc2cccc(F)c2)ncc1F` [Compound 568], for which the pest or weed control at 25 ppm runs as follows: under setting [5], 51 to 75%; under setting [7], 76 to 100%. Further, the pest or weed control at 100 ppm under setting [6] was 76 to 100% and the pest or weed control at 100 ppm under setting [8] was in the range of 76 to 100%.

As for `COc1ccccc1COc1ncc(F)c(NCO)n1` [Compound 571], the pest or weed control at 25 ppm reads like this: under setting [5], 76 to 100%; under setting [7], 76 to 100%. In addition, the pest or weed control at 100 ppm by setting is: under setting [6], 76 to 100%; under setting [8], 76 to 100%.

Consider `Fc1ccc(COc2ncc(F)c(NC(=S)NCc3ccccc3F)n2)cc1` [Compound 572], for which the pest or weed control at 25 ppm under setting [5] is 26 to 50% and the pest or weed control at 25 ppm under setting [7] was in the range of 26 to 50%. Besides, the pest or weed control at 100 ppm under setting [6] fell in the range of 76 to 100% and the pest or weed control at 100 ppm under setting [8] lay within 51 to 75%.

As for `COc1ccc(Oc2ncc(F)c(N)n2)cc1` [Compound 573], the pest or weed control at 25 ppm runs as follows: under setting [5], 26 to 50%; under setting [7], 0 to 25%. Further, the pest or weed control at 100 ppm was in the range of 51 to 75% under setting [6] and 0 to 25% under setting [8].

Turning to `Nc1nc(OCc2ccc(Cl)c(Cl)c2)ncc1F` [Compound 574], the pest or weed control at 25 ppm runs as follows: under setting [5], 76 to 100%; under setting [7], 76 to 100%. Besides, the pest or weed control at 100 ppm under setting [6] was 76 to 100% and the pest or weed control at 100 ppm under setting [8] fell in the range of 76 to 100%.

In the case of `CC(Oc1ncc(F)c(N)n1)c1cccc([N+](=O)[O-])c1` (centres unmarked) [Compound 576], the pest or weed control at 25 ppm under setting [5] lay within 26 to 50% and the pest or weed control at 25 ppm under setting [7] lay in the range of 26 to 50%. The pest or weed control at 100 ppm reads like this: under setting [6], 76 to 100%; under setting [8], 76 to 100%.

Consider `Cc1csc(COc2ncc(F)c(N)n2)c1` [Compound 577], for which the pest or weed control at 25 ppm reads like this: under setting [5], 76 to 100%; under setting [7], 76 to 100%. Besides, the pest or weed control at 100 ppm under setting [6] was in the range of 76 to 100% and the pest or weed control at 100 ppm under setting [8] is 76 to 100%.

Regarding `Nc1nc(OCc2cc3cccnc3s2)ncc1F` [Compound 578], the pest or weed control at 25 ppm runs as follows: under setting [5], 76 to 100%; under setting [7], 76 to 100%. Further, the pest or weed control at 100 ppm reads like this: under setting [6], 76 to 100%; under setting [8], 76 to 100%.

Consider `Nc1nc(OCc2cccnc2Cl)ncc1F` [Compound 580], for which the pest or weed control at 25 ppm lay in the range of 51 to 75% under setting [5] and 0 to 25% under setting [7]. Also, the pest or weed control at 100 ppm lay within 76 to 100% under setting [6] and 51 to 75% under setting [8].

For the compound `COc1cc(COc2ncc(F)c(N)n2)ccc1F` [Compound 581], the pest or weed control at 25 ppm runs as follows: under setting [5], 76 to 100%; under setting [7], 76 to 100%. In addition, the pest or weed control at 100 ppm under setting [6] was 76 to 100% and the pest or weed control at 100 ppm under setting [8] was 76 to 100%.

Turning to `Nc1nc(OCCNc2ccccc2)ncc1F` [Compound 583], the pest or weed control at 25 ppm is 0 to 25% under setting [5] and 76 to 100% under setting [7]. The pest or weed control at 100 ppm lay within 76 to 100% under setting [6] and 76 to 100% under setting [8].

As to `CN(C)/C=N/c1nc(OC(=O)c2ccc(Cl)cc2)ncc1F` [Compound 585], the pest or weed control at 25 ppm lay within 76 to 100% under setting [5] and 76 to 100% under setting [7]. Also, the pest or weed control at 100 ppm is, setting by setting: under setting [6], 76 to 100%; under setting [8], 76 to 100%.
